The text below walks through data of patent publication US20020151599A1, “FORMULATIONS HAVING AN ANTIVIRAL ACTION” (priority 1999, published 2002).

One data set is described as follows: solubility in solvents. The data set is classed as physicochemical. An excerpt:
By virtue of its solubility profile, the compound is readily miscible, in some cases using solubilizers, with oils, fats and emulsions and, in view of its profile of properties, can be used in combination with other known light protection filters. […] In view of the property profile of isoquercitrin, it is easy for the person skilled in the art to choose suitable solvents and additives depending on the desired preparation product. It is particularly easy to prepare emulsions, gels or emulsion care sticks with isoquercitrin. It is, however, also possible to prepare all other cosmetic formulations, such as ointments, creams, lotions, oils, sticks and sprays, and also pharmaceutical formulations in solid or liquid form using appropriate additives.

The subject of the next data set is herpes simplex viruses. Conditions: compounds of the same aglycone compared; quercetin active only in very high doses, if at all; cited from earlier work.

With `O=c1c(O[C@@H]2O[C@H](CO)[C@@H](O)[C@H](O)[C@H]2O)c(-c2ccc(O)c(O)c2)oc2cc(O)cc(O)c12` [isoquercitrin], the “skin tolerance, toxic or allergic reaction” value in the data set “skin tolerability” is given as “well tolerated by the skin”. Moreover, the “solubility in polar solvents” value in “solubility in solvents” (ethanol or 1,2-propylene glycol) is recorded as “particularly readily soluble”. Further, the solubility in glycerol result in the data set “solubility in solvents” (glycerol, forms a slightly cloudy solution) is “soluble in glycerol”.

Turning to `O=c1c(O)c(-c2ccc(O)c(O)c2)oc2cc(O)cc(O)c12` [quercetin], in the data set on herpes simplex viruses, the antiviral effects entry is “virtually no antiviral effects”.
